ChEMBL document CHEMBL5352394, “Development of fluorizoline analogues as prohibitin ligands that modulate C-RAF signaling, p21 expression and melanogenesis” (Eur J Med Chem, 2022)
The source made the active and inactive calls. No cut-off for these calls is given here.

Tests used:
[1] = target: RAF proto-oncogene serine/threonine-protein kinase (Homo sapiens) (UniProt P04049); assay: Inhibition of C-RAF phosphorylation at Ser 338 residue in human HeLa cells at 10 uM preincubated with compound for 1 hr and followed by EGF stimulation for 30 mins by Western blot analysis; format: cell-based
Chain of RAF proto-oncogene serine/threonine-protein kinase (Homo sapiens) (P04049 whole entry): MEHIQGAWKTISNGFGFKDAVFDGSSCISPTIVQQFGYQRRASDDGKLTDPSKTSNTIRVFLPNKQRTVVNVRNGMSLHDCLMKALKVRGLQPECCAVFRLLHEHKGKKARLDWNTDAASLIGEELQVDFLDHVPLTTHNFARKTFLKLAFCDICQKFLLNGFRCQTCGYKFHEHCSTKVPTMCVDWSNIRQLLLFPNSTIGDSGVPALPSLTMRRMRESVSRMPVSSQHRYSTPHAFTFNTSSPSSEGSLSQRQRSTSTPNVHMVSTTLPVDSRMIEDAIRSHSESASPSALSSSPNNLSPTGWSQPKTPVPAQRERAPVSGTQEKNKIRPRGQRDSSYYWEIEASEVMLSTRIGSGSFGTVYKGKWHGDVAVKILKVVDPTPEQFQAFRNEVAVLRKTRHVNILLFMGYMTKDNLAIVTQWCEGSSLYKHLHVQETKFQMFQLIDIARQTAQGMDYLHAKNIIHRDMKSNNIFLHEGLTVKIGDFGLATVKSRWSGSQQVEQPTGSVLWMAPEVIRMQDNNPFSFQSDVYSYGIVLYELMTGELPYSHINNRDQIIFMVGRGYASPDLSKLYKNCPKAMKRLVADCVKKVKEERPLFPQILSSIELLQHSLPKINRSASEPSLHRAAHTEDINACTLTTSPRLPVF

[2] = test system: HBL; assay: Induction of pigmentation in human HBL cells assessed as melanogenesis at 0.1 to 10 uM by microscopic analysis; format: functional, cell-based; conditions: dose 0.1-10 µM
[3] = test system: HeLa; assay: Cytotoxicity against human HeLa cells assessed as reduction in cell viability measured after 24 hrs by MTT assay; format: functional, cell-based; conditions: dose 1.25-10 µM
[4] = target: Dual specificity mitogen-activated protein kinase kinase 1 (Homo sapiens) (UniProt Q02750); assay: Inhibition of MEK1 phosphorylation in human HeLa cells at 10 uM preincubated for 1 hr and followed by EGF stimulation for 30 mins by Western blot analysis; format: cell-based
Chain of Dual specificity mitogen-activated protein kinase kinase 1 (Homo sapiens) (Q02750 whole entry): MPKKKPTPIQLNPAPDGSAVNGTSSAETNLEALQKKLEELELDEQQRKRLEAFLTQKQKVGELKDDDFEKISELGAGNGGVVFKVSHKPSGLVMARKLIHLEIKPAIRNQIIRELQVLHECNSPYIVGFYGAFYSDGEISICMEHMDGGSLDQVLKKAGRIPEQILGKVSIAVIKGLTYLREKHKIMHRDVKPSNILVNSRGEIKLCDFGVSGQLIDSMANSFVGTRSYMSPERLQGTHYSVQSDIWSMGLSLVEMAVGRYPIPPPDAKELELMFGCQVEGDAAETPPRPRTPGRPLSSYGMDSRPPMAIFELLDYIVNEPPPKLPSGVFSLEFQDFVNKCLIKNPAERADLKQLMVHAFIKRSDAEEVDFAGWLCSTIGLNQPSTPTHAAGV

[5] = test system: MCF7; assay: Upregulation of p21 expression in human MCF7 cells at 1 uM incubated for 72 hrs by Western blot analysis; format: functional, cell-based
[6] = test system: MCF7; assay: Antiproliferative activity against human MCF7 cells assessed as reduction in cell viability at 1 uM incubated for 72 hrs by trypan blue exclusion assay; format: functional, cell-based
[7] = test system: MCF7; assay: Antiproliferative activity against human MCF7 cells transfected with p21 siRNA assessed as reduction in cell viability at 1 uM incubated for 48 hrs by tryphan blue dye exclusion analysis; format: functional, cell-based

SMILES | inhibition [1] | inhibition [4] | Activity [2] | Activity [3] | Activity [5] | Activity [6] | Activity [7]
O=C(c1ccccc1)c1ccc(C2=NC(F)(F)C(F)(c3ccc(Cl)cc3)S2)cc1 (stereo not drawn) | Active |  | Active |  |  |  | 
FC1(F)N=C(c2ccc(Cl)cc2)SC1(F)c1ccc(Cl)cc1 (stereo not drawn) |  |  | Active | Dose-Dependent Effect |  |  | 
FC1(F)N=C(c2ncccn2)SC1(F)c1ccc(Cl)cc1 (stereo not drawn) | Active | Active | Active |  |  |  | 
FC1(F)N=C(c2cnccn2)SC1(F)c1ccc(Cl)cc1 (stereo not drawn) | inactive | inactive | Active |  | Active | Active | inactive
FC1(F)N=C(c2ccccn2)SC1(F)c1ccccc1 (stereo not drawn) | Active |  | Active |  |  |  | 
FC1(F)N=C(c2ccccn2)SC1(F)c1ccc(Cl)cc1 (stereo not drawn) | Active | Active | Active |  |  |  | 
Cc1ccc(C2(F)SC(c3ccccc3)=NC2(F)F)cc1 (stereo not drawn) | inactive | inactive | Active | Dose-Dependent Effect |  |  | inactive

Second part, led by results:

inhibition [1] | inhibition [4] | SMILES | Activity [2] | Activity [3] | Activity [5] | Activity [6] | Activity [7]
inactive | Active | CC1(F)N=C(c2ccc(Cl)cc2)SC1(F)c1ccc(Cl)cc1 (stereo not drawn) |  |  |  |  | 
inactive | inactive | FC1(F)SC(c2ccc(Cl)cc2)=NC1(F)c1ccc(Cl)cc1 (stereo not drawn) | Active |  | inactive | inactive | 
Active |  | FC1(F)N=C(c2ccc(Br)cc2)SC1(F)c1ccc(Cl)cc1 (stereo not drawn) | Active | Dose-Dependent Effect | Active | Active | 
Active | Active | Cc1ccc(C2(F)SC(c3ccc(Cl)cc3)=NC2(F)F)cc1 (stereo not drawn) | Active | Dose-Dependent Effect |  |  | 
Active | inactive | FC1(F)N=C(c2ccc(Cl)cn2)SC1(F)c1ccc(Cl)cc1 (stereo not drawn) | Active | Dose-Dependent Effect |  |  | 
